Here are results for 63 molecules from a melting point compilation (Tetko et al.; mined from patent text by program, amines drawn as free bases though some values may be those of a salt).

SMILES strings stand for the structures. Residues, ends and D or L forms follow the SMILES beside them. A value given as a limit tells only on which side of the number the result lay.

A word on the melting point: it is the temperature, or range, at which the solid turns liquid. Take `O=C1OC(c2ccccc2)(c2ccccc2)C2CN(S(=O)(=O)c3ccccc3)CCN12` (stereo not drawn): the melting point lay within 236 to 237 °C.
Molecule `CCC(=O)NCCC1c2cc(OC)ccc2-c2ccc3c(c21)OCO3` (stereo not drawn) registered a melting point of 145 to 147 °C.
In turn, `Cc1nnc2cc(-c3ccccc3)c3cc(Cl)ccc3n12` returned a melting point of 254 to 255 °C.
In turn, `COc1nc(NCCc2ccccc2)c2cc(C)sc2n1` came in with a melting point of 138 °C.
As for `COCC1COc2cc3ncnc(Nc4cc(C)cc(C)c4)c3cc2O1` (stereo not drawn), the melting point lay within 268 to 270 °C.
Next, `O=C(NC1CCC(O)CC1)NC12CC3CC(CC(C3)C1)C2` (stereo not drawn): 205 °C; `COc1ccc(-c2nc(C(=O)OC(C)(C)C)c(-c3ccncc3)[nH]2)cc1`: 211 to 212 °C.
With `Cc1c(Cc2cccc(C(F)(F)F)c2)sc2c(-c3cc(F)cc(C(=O)NCC(N)=O)c3)cccc12`, the melting point is 46 to 47 °C.
As for `CC(C)(C)OC(=O)N[C@@H](CSc1ccccc1N)C(=O)O`, the melting point was 109 to 111 °C.
For `[N-]=[N+]=Nc1c(F)c(F)c(C(=O)O)c(F)c1F`, the melting point lay in the range of 140 to 141 °C.
Next, `CC(C)(F)Cn1c(CCO)nc2c(N)nc3cccnc3c21`: 224 to 225 °C; `COc1cccc(NC(=O)OC2CN3CCC2CC3)c1` (stereo not drawn): 130 to 132 °C.
In turn, `Cn1cc(-c2cc3cccnc3[nH]2)c2cc(C(N)=O)ccc21` had a melting point of 330 to 332 °C.
As for `CC12Cc3cnn(-c4ccc(F)cc4)c3C=C1CCC1C2=CCCC1c1ccccn1` (stereo not drawn), the melting point was in the range of 154 to 156 °C.
Consider `COc1cc2c(c3c1OC(C)(C)C3)C(c1ccncc1Cl)=NC(C)(C)C2`, for which the melting point lay within 126 to 128 °C.
Next, `O=C(O)C1Cc2c(c(Cl)cc3c(-c4cccc(Cl)c4)noc23)O1` (stereo not drawn): 168 to 169 °C; `CCC(Oc1c(C)c(F)cc(F)c1F)C1=NCCN1` (stereo not drawn): 99 to 101 °C.
Molecule `COc1ccc(C2SCc3c(sc(N)c3C(=O)c3cccs3)S2)cc1` (stereo not drawn) yielded a melting point of 138 to 140 °C.
Consider `Nc1ccc(Cl)cc1Cc1ccccc1F`, for which the melting point lay within 175 to 181 °C.
The value for `Cc1ccc(-c2ccc3cc(C(=O)Nc4ccc(CN(C)C5CCOCC5)cc4)n(C)c3c2)cc1` was 225 to 226 °C; that for `COc1cc(NC(=O)CCCCCN2CCN(C3CCCCC3)CC2)c2nccc(C)c2c1` was 109 to 110 °C; that for `Cc1ccc2nc(O)c(O)nc2c1` was above 300 °C.
The value for `Cc1ccnc2c1C(=O)c1cc([N+](=O)[O-])ccc1-2` was 225 to 227 °C.
On to `O=CNCC1CN(c2c(F)cc3c(=O)c(C(=O)O)cn(C4CC4)c3c2F)CCO1` (stereo not drawn), for which the melting point was in the range of 210 to 213 °C.
In turn, `O=C(CN1CCCC1=O)NCC(=O)Nc1ccncc1` returned a melting point of 243 to 245 °C.
`COC(=O)C(Cc1ccccc1)NC(=O)C(CC(=O)O)NC(=O)CN` (stereo not drawn) (H-Gly-Asp-Phe-OMe; configuration not given here) displayed a melting point of 233 to 235 °C.
The molecule `CC(=O)SCC(Cc1ccccc1)C(=O)Nc1cc(C(=O)O)cc(C(F)(F)F)c1` (stereo not drawn) gave a melting point of 62 to 67 °C.
In turn, `COC(=O)C=Cc1ccc(C)cc1` yielded a melting point of 55 to 56 °C.
In turn, `C[C@@H](NC(=O)[C@H](Cc1ccc(OCc2ccccc2)cc1)NC(=O)[C@@H](N)COCc1ccccc1)C(=O)O` gave a melting point of 121 to 122 °C.
`Cc1cccc(C(=O)CCSC(=S)Nc2ccc(Cl)cn2)c1` showed a melting point of 153 °C.
Consider `C[C@@H](n1ncn(-c2ccc(O)cc2)c1=O)[C@](O)(Cn1cncn1)c1ccc(F)cc1F`, for which the melting point turned out to be 242 °C.
Take `N#Cc1cnn(-c2ccc(C(F)(F)F)cc2Cl)c1Br`: the melting point came to 127 °C.
The value for `CC(=O)c1ccc(C(=O)NC/C=C/c2ccccc2)cc1` was 120 °C; that for `CC(=O)Nc1ccc(C#Cc2cnn3c(C(F)(F)F)cc(-c4ccc(C(F)(F)F)cc4)nc23)cn1` was 266 °C.
The molecule `CC#CCOc1ccc(S(=O)(=O)N(C)C(C(=O)NO)C(C)(C)SCC(C)N(CC)CC)cc1` (stereo not drawn) displayed a melting point of 65 to 68 °C.
`CC(=O)n1cc(C2=CCN(CCCN3c4cccc5cccc(c45)S3(=O)=O)CC2)c2ccccc21` showed a melting point of 163 °C.
For the molecule `O=C(NCc1ncco1)c1ccnc(N2CCN(Cc3ccc(F)cc3)C2=O)c1`, the melting point lay in the range of 148 to 150 °C.
With `Cc1nc(-c2ccc(Cl)cc2)c(CCC(=O)O)o1`, the melting point was in the range of 211 to 212 °C.
Regarding `COc1ccc(C(=O)c2ccc(OCc3nc(-c4ccccc4)oc3C)cc2)c(OC(F)(F)C(=O)O)c1`, the melting point lay within 166 to 167 °C.
On to `O=C(Nc1noc2ccccc12)N1CCN(c2nc(-c3ccccc3)no2)CC1`, for which the melting point was 215 to 216 °C.
Take `CCOC(=O)C1C(c2ccc(I)cc2)CC(=O)N1C` (stereo not drawn): the melting point was in the range of 120 to 121 °C.
Next, `O=C1N(Cc2ncccc2C(F)(F)F)c2ccccc2C12COc1c2ccc2c1OCCO2` (stereo not drawn): 206 to 207 °C; `COc1cc2c(cc1O)CC1c3c(cc(OC)c(O)c3-2)CCN1CC1CC1` (single isomer, unassigned; (+)): 80 to 84 °C.
`CC(C)COC(=O)Nc1cc(F)cc(F)c1` registered a melting point of 71 to 74 °C.
As to `CCOC(=O)Cc1cc2c(N)cccc2cn1`, the melting point was 90 °C.
Consider `CCCc1cccc(=O)[nH]1`, for which the melting point was 89 to 90 °C.
The value for `CNC(=O)c1cccc(Oc2ncccc2C(=O)NCc2ccccc2)c1` was 164 to 167 °C; that for `O=C(O)c1cn(C2CC2)c2nc(Cl)c(F)cc2c1=O` was 209 to 212 °C.
Next, `Cc1ccc(COC(=O)NC(CO)Cc2ccc(O)cc2)cc1` (stereo not drawn): 128 to 129 °C; `O=C(NCCc1ccc(CN2CCCC2)cc1)N1CCC(c2ccc(Cl)cc2)CC1`: 116 to 117 °C.
For `O=C(O)CCSC1c2ccc(SCC(=O)O)cc2COc2ccc(OCc3ccc4ccc(Cl)cc4n3)cc21` (stereo not drawn), the melting point fell in the range of 165 to 167 °C.
Regarding `CC(=O)Nc1ccc(-c2nn(C(C)=O)c3c2Cc2ccccc2-3)cc1`, the melting point fell in the range of 245 to 246 °C.
The value for `CCOC(=O)COc1ccc(C2=CC(=O)CCC2CC)c(Cl)c1Cl` (stereo not drawn) was 110 to 112 °C; that for `CCOC(=O)N1CCC(Nc2nc3ccccc3n2Cc2csc(C)n2)CC1` was 160 °C.
In turn, `NCCc1c[nH]c2ccc(NC(N)=O)cc12` had a melting point of 188 to 190 °C.
Next, `O=S(=O)(c1ccccc1)c1cnc2c(N3CCNCC3)cccc2c1`: 164 °C.
In the case of `CSc1nnc(C(C)(C)C)c(=O)n1C`, the melting point was 90 to 100 °C.
Next, `CCC1SC(=O)NN=C1c1ccc(OC(F)F)c(OC)c1` (stereo not drawn): 97 °C; `CSCC(=O)Nc1cc(-c2c(-c3ccc(F)c(C)c3)nc3cccnn23)ccn1`: 155 to 156 °C.
`COC(C#N)Cc1ccc2oc(Cc3nc(-c4ccccc4)oc3C)cc2c1` (stereo not drawn) came in with a melting point of 107 to 109 °C.
Molecule `COc1ccc(-c2cccc3c2C2(COc4cc5c(cc42)OCCO5)C(=O)N3Cc2ccccn2)cc1` (stereo not drawn) had a melting point of 205 to 206 °C.
Turning to `CC1OC(n2cc(F)c(NC(=O)OC3CCCCC3)nc2=O)C(O)C1O` (stereo not drawn), the melting point lay in the range of 134 to 136 °C.
`O=C1CC(Nc2ccc([N+](=O)[O-])cc2)=NN1c1c(Cl)cc(Cl)cc1Cl`: the melting point lay within 295 to 298 °C.
